{
  "source": "ChEMBL document CHEMBL3244110",
  "about": "“Synthesis and biological evaluation of some 2-amino-4-aryl-3H-1,5-benzodiazepine analogues of clozapine” (J Med Chem, 1978)",
  "key": {"[1]": {"tested_on": "Mus musculus", "assay": "Toxicity in mouse assessed as tremors at 50 mg/kg, ip", "assay_type": "organism-based", "design": "dose 50 mg/kg, route intraperitoneal", "settings": "in vivo"}, "[2]": {"tested_on": "Mus musculus", "assay": "Antipsychotic activity in mouse assessed as protection against amphetamine-induced lethality at 50 mg/kg, ip treated 30 mins before amphetamine challenge", "assay_type": "functional, organism-based", "design": "dose 50 mg/kg"}, "[3]": {"tested_on": "Rattus norvegicus", "assay": "Antipsychotic activity in 0.2 mA footshock-induced conditioned stimulus rat assessed as decrease in avoidance response at 5 mg/kg, ip after 30 mins", "assay_type": "functional, organism-based", "design": "dose 5 mg/kg"}, "[4]": {"molecular_target": "Adenylate cyclase (Rattus norvegicus) (UniProt D4A3N4+P26770+Q04400+P26769+Q03343+P40146+Q8CFM9+P21932)", "assay": "Inhibition of dopamine-sensitive rat brain adenylyl cyclase activity assessed as cAMP level at 10^-4 M"}, "[5]": {"tested_on": "Mus musculus", "assay": "Toxicity in mouse assessed as depression at 20 mg/kg, ip", "assay_type": "organism-based", "design": "dose 20 mg/kg, route intraperitoneal", "settings": "in vivo"}, "[6]": {"tested_on": "Mus musculus", "assay": "Antipsychotic activity in mouse assessed as increase in brain dopamine turnover at 25 to 30 mg/kg, ip pretreated with 200 mg/kg, ip alpha-methyl-p-tyrosine tyrosine hydroxylase inhibitor", "assay_type": "functional, organism-based"}, "[7]": {"tested_on": "Rattus norvegicus", "assay": "Antipsychotic activity in 0.2 mA footshock-induced conditioned stimulus rat assessed as decrease in avoidance response at 20 mg/kg, ip after 30 mins", "assay_type": "functional, organism-based", "design": "dose 20 mg/kg"}, "[8]": {"tested_on": "Mus musculus", "assay": "Antipsychotic activity in mouse assessed as protection against amphetamine-induced lethality at 5 mg/kg, ip treated 30 mins before amphetamine challenge", "assay_type": "functional, organism-based", "design": "dose 5 mg/kg"}, "[9]": {"molecular_target": "Adenylate cyclase", "assay": "Inhibition of dopamine-sensitive rat brain adenylyl cyclase activity assessed as cAMP level"}, "[10]": {"tested_on": "Mus musculus", "assay": "Toxicity in mouse assessed as ptosis at 50 mg/kg, ip", "assay_type": "organism-based", "design": "dose 50 mg/kg, route intraperitoneal", "settings": "in vivo"}, "[11]": {"tested_on": "Mus musculus", "assay": "Toxicity in mouse assessed as depression at 5 mg/kg, ip", "assay_type": "organism-based", "design": "dose 5 mg/kg, route intraperitoneal", "settings": "in vivo"}, "[12]": {"tested_on": "Mus musculus", "assay": "Toxicity in mouse assessed as depression at 50 mg/kg, ip", "assay_type": "organism-based", "design": "dose 50 mg/kg, route intraperitoneal", "settings": "in vivo"}, "[13]": {"tested_on": "Mus musculus", "assay": "Toxicity in mouse assessed as ptosis at 30 mg/kg, ip", "assay_type": "organism-based", "design": "dose 30 mg/kg, route intraperitoneal", "settings": "in vivo"}},
  "note": "The source made the active and inactive calls. No cut-off for these calls is given here.",
  "data": [
    {"smiles": "Cc1cc2c(cc1C)N=C(N1CCN(C)CC1)CC(c1ccccc1)=N2", "values": [
      {"measurement": "Activity", "setting": "[1]", "value": "Toxic"},
      {"measurement": "Activity", "setting": "[2]", "value": "inactive"},
      {"measurement": "Activity", "setting": "[3]", "value": "inactive"},
      {"measurement": "inhibition", "setting": "[4]", "value": "inactive"},
      {"measurement": "Activity", "setting": "[5]", "value": "Toxic"},
      {"measurement": "Activity", "setting": "[6]", "value": "Active"},
      {"measurement": "Activity", "setting": "[7]", "value": "Active"},
      {"measurement": "Activity", "setting": "[8]", "value": "inactive"}
    ]},
    {"smiles": "CN1CCN(C2=Nc3cc(Cl)ccc3Nc3ccccc32)CC1", "note": "[CLOZAPINE]", "values": [
      {"measurement": "IC50", "setting": "[9]", "value": 1.4, "unit": "×10⁻⁷ M"},
      {"measurement": "Activity", "setting": "[2]", "value": "Active"},
      {"measurement": "Activity", "setting": "[3]", "value": "Active"},
      {"measurement": "Activity", "setting": "[6]", "value": "Active"},
      {"measurement": "Activity", "setting": "[7]", "value": "Active"},
      {"measurement": "Activity", "setting": "[8]", "value": "Active"}
    ]},
    {"smiles": "c1ccc(C2=Nc3ccccc3N=C(N3CCC(c4ccccc4)CC3)C2)cc1", "values": [
      {"measurement": "Activity", "setting": "[10]", "value": "Toxic"},
      {"measurement": "IC50", "setting": "[9]", "value": 4.5, "unit": "×10⁻⁵ M"},
      {"measurement": "Activity", "setting": "[2]", "value": "Active"},
      {"measurement": "Activity", "setting": "[3]", "value": "inactive"},
      {"measurement": "Activity", "setting": "[6]", "value": "Active"},
      {"measurement": "Activity", "setting": "[7]", "value": "inactive"},
      {"measurement": "Activity", "setting": "[8]", "value": "Active"}
    ]},
    {"smiles": "Fc1ccc(C2=Nc3ccccc3N=C(N3CCC(c4ccccc4)CC3)C2)cc1", "values": [
      {"measurement": "Activity", "setting": "[11]", "value": "Toxic"},
      {"measurement": "Activity", "setting": "[2]", "value": "Active"},
      {"measurement": "Activity", "setting": "[3]", "value": "Active"},
      {"measurement": "inhibition", "setting": "[4]", "value": "inactive"},
      {"measurement": "Activity", "setting": "[6]", "value": "inactive"},
      {"measurement": "Activity", "setting": "[7]", "value": "inactive"},
      {"measurement": "Activity", "setting": "[8]", "value": "Active"}
    ]},
    {"smiles": "CN1CCN(C2=Nc3ccccc3N=C(c3ccc(F)cc3)C2)CC1", "values": [
      {"measurement": "Activity", "setting": "[10]", "value": "Toxic"},
      {"measurement": "Activity", "setting": "[2]", "value": "inactive"},
      {"measurement": "Activity", "setting": "[3]", "value": "inactive"},
      {"measurement": "inhibition", "setting": "[4]", "value": 46, "unit": "%"},
      {"measurement": "Activity", "setting": "[5]", "value": "Toxic"},
      {"measurement": "Activity", "setting": "[6]", "value": "Active"},
      {"measurement": "Activity", "setting": "[7]", "value": "Active"},
      {"measurement": "Activity", "setting": "[12]", "value": "Toxic"},
      {"measurement": "Activity", "setting": "[8]", "value": "inactive"}
    ]},
    {"smiles": "Clc1ccc(C2CCN(C3=Nc4ccccc4N=C(c4ccccc4)C3)CC2)cc1", "values": [
      {"measurement": "Activity", "setting": "[2]", "value": "inactive"},
      {"measurement": "Activity", "setting": "[3]", "value": "inactive"},
      {"measurement": "Activity", "setting": "[13]", "value": "Toxic"},
      {"measurement": "Activity", "setting": "[6]", "value": "inactive"},
      {"measurement": "Activity", "setting": "[7]", "value": "inactive"},
      {"measurement": "Activity", "setting": "[8]", "value": "Active"}
    ]},
    {"smiles": "Cc1ccc(C2=CCN(C3=Nc4ccccc4N=C(c4ccccc4)C3)CC2)cc1", "values": [
      {"measurement": "Activity", "setting": "[11]", "value": "Toxic"},
      {"measurement": "Activity", "setting": "[2]", "value": "Active"},
      {"measurement": "Activity", "setting": "[3]", "value": "Active"},
      {"measurement": "inhibition", "setting": "[4]", "value": 27, "unit": "%"},
      {"measurement": "Activity", "setting": "[5]", "value": "Toxic"},
      {"measurement": "Activity", "setting": "[6]", "value": "Active"},
      {"measurement": "Activity", "setting": "[7]", "value": "Active"},
      {"measurement": "Activity", "setting": "[8]", "value": "inactive"}
    ]}
  ]
}
